Measured values published in patent US20180280377A1, “Imidazo[4,5-c]quinolin-2-one Compounds and Their Use in Treating Cancer” (ASTRAZENECA AB, priority 2015, published 2018).

What was measured:
[1] = biological target: PI3Kα (Homo sapiens, UniProt P42336); assay: PI3K cellular potency assay (phospho-Akt T308 in BT474 cells, ELISA); assay type: cell-based; details: 2 h, phospho-Akt (T308); Table 2; read-out: Assay c) PI3Kα Cell IC50
Description: The following assays were used to measure the effects of the compounds of the present invention: a) ATM cellular potency assay; b) PI3K cellular potency assay; c) mTOR cellular potency assay; d) ATR cellular potency assay. During the description of the assays, generally: • i. […] IC50 values were calculated using a smart fitting model in Genedata.
This assay was used to measure PI3K-α inhibition in cells. PDK1 was identified as the upstream activation loop kinase of protein kinase B (Akt1), which is essential for the activation of PKB. Activation of the lipid kinase phosphoinositide 3 kinase (PI3K) is critical for the activation of PKB by PDK1.
Following ligand stimulation of receptor tyrosine kinases, PI3K is activated, which converts PIP2 to PIP3, which is bound by the PH domain of PDK1 resulting in recruitment of PDK1 to the plasma membrane where it phosphorylates AKT at Thr308 in the activation loop.
The aim of this cell-based mode of action assay is to identify compounds that inhibit PDK activity or recruitment of PDK1 to membrane by inhibiting PI3K activity. Phosphorylation of phospho-Akt (T308) in BT474c cells following treatment with compounds for 2 h is a direct measure of PDK1 and indirect measure of PI3K activity.
The following morning compounds in 100% DMSO were added to assay plates by acoustic dispensing.
Plates were incubated over night at 4° C. The next day the plates were washed with PBS buffer containing 0.05% Tween 20 and further incubated with a mouse monoclonal anti-phospho AKT T308 for 2 h. Plates were washed again as above before addition of a horse anti-mouse-HRP conjugated secondary antibody. […] The developed fluorescent product was stopped after 60 minutes by addition of Stop solution to the wells.

[2] = biological target: T1, ATR (Homo sapiens, UniProt Q13535); assay: ATR cellular potency assay (pChk1 Ser345 in HT29 cells after 4NQO); assay type: cell-based; details: pChk1 (Ser 345); Table 2; read-out: Assay b) ATR Cell IC50
T1 construct: endogenous in cells; host or cells: HT29 cells (ECACC #85061109)
T1 sequence (Q13535 whole entry): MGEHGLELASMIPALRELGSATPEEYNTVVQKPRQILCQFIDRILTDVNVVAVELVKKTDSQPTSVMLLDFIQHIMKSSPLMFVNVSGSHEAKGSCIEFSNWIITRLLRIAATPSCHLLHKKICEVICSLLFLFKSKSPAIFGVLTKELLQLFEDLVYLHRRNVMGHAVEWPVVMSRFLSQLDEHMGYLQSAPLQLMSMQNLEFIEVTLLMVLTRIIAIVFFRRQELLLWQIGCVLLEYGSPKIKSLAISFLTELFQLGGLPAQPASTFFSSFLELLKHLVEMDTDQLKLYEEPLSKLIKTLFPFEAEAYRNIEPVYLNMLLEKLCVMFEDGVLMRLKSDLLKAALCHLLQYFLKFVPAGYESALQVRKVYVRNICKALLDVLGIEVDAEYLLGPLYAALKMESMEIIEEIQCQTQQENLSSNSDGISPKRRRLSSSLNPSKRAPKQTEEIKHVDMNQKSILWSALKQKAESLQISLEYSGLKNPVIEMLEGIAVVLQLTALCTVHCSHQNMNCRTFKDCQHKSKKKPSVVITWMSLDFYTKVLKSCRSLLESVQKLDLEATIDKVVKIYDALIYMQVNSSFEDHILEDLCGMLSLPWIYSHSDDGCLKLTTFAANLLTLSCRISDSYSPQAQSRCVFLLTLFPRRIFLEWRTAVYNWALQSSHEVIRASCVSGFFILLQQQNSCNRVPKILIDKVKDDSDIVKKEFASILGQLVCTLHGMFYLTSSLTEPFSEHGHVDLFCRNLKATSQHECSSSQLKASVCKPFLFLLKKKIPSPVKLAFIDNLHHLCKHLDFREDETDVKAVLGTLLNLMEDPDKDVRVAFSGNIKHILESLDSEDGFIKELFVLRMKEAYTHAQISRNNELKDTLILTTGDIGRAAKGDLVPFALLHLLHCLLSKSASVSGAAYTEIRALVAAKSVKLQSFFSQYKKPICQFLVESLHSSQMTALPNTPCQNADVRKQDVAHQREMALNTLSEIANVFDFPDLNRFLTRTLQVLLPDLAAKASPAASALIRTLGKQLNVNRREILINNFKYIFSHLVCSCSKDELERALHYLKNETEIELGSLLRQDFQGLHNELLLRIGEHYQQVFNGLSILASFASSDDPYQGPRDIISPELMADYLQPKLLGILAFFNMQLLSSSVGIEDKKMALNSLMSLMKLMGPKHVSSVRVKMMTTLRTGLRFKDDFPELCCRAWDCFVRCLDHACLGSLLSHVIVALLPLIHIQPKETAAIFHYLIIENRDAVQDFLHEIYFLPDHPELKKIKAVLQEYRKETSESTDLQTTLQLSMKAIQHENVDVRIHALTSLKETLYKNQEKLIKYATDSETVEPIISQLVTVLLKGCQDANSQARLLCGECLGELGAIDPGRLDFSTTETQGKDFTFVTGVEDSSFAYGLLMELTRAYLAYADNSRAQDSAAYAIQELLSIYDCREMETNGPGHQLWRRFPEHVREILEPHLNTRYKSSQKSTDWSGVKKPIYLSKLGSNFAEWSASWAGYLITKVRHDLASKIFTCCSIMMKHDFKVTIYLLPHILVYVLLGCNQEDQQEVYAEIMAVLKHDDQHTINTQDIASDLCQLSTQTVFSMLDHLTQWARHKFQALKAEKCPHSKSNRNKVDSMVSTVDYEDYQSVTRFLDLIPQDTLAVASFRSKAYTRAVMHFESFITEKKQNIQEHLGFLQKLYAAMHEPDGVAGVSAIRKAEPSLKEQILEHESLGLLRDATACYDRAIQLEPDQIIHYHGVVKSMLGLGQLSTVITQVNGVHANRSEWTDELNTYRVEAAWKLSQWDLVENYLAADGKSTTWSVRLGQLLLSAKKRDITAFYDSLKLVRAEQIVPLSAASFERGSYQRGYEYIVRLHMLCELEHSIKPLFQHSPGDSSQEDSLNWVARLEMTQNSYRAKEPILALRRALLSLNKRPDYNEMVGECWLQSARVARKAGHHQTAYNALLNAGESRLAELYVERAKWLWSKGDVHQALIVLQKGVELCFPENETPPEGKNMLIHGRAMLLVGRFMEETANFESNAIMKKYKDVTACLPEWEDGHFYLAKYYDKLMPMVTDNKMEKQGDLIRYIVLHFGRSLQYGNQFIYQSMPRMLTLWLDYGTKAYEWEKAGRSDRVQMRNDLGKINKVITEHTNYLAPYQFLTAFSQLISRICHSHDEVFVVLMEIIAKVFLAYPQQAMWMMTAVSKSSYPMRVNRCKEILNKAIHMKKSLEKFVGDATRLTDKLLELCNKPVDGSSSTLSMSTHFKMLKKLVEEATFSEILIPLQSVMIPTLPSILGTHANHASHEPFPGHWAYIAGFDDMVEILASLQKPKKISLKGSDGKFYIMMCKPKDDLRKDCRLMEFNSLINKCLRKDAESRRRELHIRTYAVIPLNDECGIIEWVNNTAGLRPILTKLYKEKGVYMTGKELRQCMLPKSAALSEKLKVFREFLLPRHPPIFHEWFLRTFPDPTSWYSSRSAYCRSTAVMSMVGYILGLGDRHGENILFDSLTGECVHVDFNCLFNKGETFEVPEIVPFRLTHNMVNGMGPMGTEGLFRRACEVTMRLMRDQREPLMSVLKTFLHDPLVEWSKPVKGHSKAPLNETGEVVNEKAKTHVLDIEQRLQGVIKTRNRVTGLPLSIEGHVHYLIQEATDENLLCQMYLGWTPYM
T1 sequence (Q8WXE1 whole entry partner): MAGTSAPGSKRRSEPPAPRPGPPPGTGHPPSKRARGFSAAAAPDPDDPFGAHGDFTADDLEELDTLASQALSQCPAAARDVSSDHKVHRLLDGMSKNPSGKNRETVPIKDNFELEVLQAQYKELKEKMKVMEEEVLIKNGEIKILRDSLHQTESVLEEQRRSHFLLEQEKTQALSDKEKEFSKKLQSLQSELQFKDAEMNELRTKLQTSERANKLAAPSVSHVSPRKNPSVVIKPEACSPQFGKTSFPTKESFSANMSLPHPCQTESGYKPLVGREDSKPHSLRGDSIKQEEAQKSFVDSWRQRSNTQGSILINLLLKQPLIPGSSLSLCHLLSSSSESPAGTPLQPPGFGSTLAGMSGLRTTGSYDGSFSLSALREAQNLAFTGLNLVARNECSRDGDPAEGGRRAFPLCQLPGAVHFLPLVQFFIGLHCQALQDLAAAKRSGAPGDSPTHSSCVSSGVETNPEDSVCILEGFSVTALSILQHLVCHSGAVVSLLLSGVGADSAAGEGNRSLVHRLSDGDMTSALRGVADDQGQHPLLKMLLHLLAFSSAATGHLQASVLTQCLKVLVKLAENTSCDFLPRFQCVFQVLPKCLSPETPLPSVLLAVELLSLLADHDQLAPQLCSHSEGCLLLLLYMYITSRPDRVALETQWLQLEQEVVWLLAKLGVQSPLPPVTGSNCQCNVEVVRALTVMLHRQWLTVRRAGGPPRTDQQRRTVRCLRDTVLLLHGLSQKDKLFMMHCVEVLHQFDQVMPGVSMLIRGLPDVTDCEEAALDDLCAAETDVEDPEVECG

| Compound | IC50 [1] | IC50 [2] |
| --- | --- | --- |
| CN(C)[C@@H]1CCN(c2ccc(-c3ccc4ncc5c(c4c3)n([C@@H]3CCCOC3)c(=O)n5C)cn2)C1 [Example 7] | 1.22 µM | 1.42 µM |
| CN(C)[C@H]1CCN(c2ccc(-c3cc4c(cc3F)ncc3c4n([C@H]4CCCOC4)c(=O)n3C)cn2)C1 [Example 20] | > 10 µM | > 30 µM |
| CO[C@H]1C[C@@H](n2c(=O)n(C)c3cnc4cc(F)c(-c5ccc(N6CC(N(C)C)C6)nc5)cc4c32)C1 [Example 31, 8-[6-[3-(dimethylamino)azetidin-1-yl]-3-pyridyl]-7-fluoro-1-(cis-3-methoxycyclobutyl)-3-methyl-imidazo[4,5-c]quinolin-2-one] | > 30 µM | > 30 µM |

Second part, the compound after the results:

| IC50 [1] | IC50 [2] | Compound |
| --- | --- | --- |
| 0.663 µM | > 30 µM | CO[C@H]1CC[C@H](n2c(=O)n(C)c3cnc4ccc(-c5ccc(N6CCC(N(C)C)CC6)nc5)cc4c32)C1 (single isomer, unassigned) [Example 32, 8-[6-[4-(dimethylamino)-1-piperidyl]-3-pyridyl]-1-[trans-3-methoxycyclopentyl]-3-methyl-imidazo[4,5-c]quinolin-2-one] |
| 0.987 µM | > 30 µM | CO[C@H]1C[C@@H](n2c(=O)n(C)c3cnc4ccc(-c5ccc(N6CCC(N(C)C)CC6)nc5)cc4c32)C1 [Example 36, 8-[6-[4-(dimethylamino)-1-piperidyl]-3-pyridyl]-1-(cis-3-methoxycyclobutyl)-3-methyl-imidazo[4,5-c]quinolin-2-one] |
| > 30 µM | > 30 µM | CO[C@H]1C[C@@H](n2c(=O)n(C)c3cnc4cc(F)c(-c5ccc(N6CCC(N(C)C)CC6)nc5)cc4c32)C1 [Example 42, 8-[6-[4-(dimethylamino)-1-piperidyl]-3-pyridyl]-7-fluoro-1-(cis-3-methoxycyclobutyl)-3-methyl-imidazo[4,5-c]quinolin-2-one] |
| > 30 µM | > 30 µM | CNC1CCN(c2ccc(-c3cc4c(cc3F)ncc3c4n([C@H]4C[C@@H](OC)C4)c(=O)n3C)cn2)CC1 [Example 57, 7-Fluoro-1-(cis-3-methoxycyclobutyl)-3-methyl-8-[6-[4-(methylamino)-1-piperidyl]-3-pyridyl]imidazo[4,5-c]quinolin-2-one] |
| 0.292 µM | > 30 µM | CNC1CCN(c2ccc(-c3ccc4ncc5c(c4c3)n([C@H]3C[C@@H](OC)C3)c(=O)n5C)cn2)CC1 [Example 60, 1-(cis-3-methoxycyclobutyl)-3-methyl-8-[6-[4-(methylamino)-1-piperidyl]-3-pyridyl]imidazo[4,5-c]quinolin-2-one] |
